In patent US4988691A (priority 1989, dated 1991):
Entries after “also recorded” stand apart in the source; their conditions may differ. Structures can show the parent of a compound that is named as a salt. Where two headings read alike, the source gives them in different places.

Columns and labels:
5-HT1 receptors = assay: affinity for 5-HT1 receptors (3H serotonin binding), rat cortex membranes; settings: 3H-serotonin 5 nM; rat frontal cortex membranes
[1] = biological target: T1, contracturing effect of acetylcholine (Cavia porcellus, UniProt H0W1Z3); assay: anticholinergic activity in vitro (contracturing effect of acetylcholine on isolated guinea pig small intestine); parameters: species or system Guinea pigs
T1 construct: Segments measuring 5-6 cm were drawn form the end portion of the small intestine; from tissue; host or cells: guinea pig terminal small intestine (ileum)
T1 sequence (H0W1Z3 1-590): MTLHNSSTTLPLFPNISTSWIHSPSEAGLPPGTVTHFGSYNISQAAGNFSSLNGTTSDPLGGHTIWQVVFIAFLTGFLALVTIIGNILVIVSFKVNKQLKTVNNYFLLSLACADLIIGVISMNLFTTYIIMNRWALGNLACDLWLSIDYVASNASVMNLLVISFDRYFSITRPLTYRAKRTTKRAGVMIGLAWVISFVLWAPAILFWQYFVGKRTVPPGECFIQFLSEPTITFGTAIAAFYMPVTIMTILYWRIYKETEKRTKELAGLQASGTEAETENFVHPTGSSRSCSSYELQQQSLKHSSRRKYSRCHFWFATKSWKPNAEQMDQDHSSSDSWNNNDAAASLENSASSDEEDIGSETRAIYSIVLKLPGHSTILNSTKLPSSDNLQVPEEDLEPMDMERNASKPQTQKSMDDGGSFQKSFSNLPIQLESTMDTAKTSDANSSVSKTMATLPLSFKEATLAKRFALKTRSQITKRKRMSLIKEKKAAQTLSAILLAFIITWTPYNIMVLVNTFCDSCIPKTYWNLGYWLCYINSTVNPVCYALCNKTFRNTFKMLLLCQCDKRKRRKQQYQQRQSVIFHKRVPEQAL

[2] = tested on: receptors for benzodiazepins; assay: displacement of 3H-flunitrazepam from benzodiazepine receptors, rat cerebral cortex membranes; type: binding; settings: 3H-flunitrazepam 1nM
[3] = biological target: T2, contracturing effect of histamine (Cavia porcellus, UniProt P31389); assay: antihistaminic activity in vitro (contracturing effect of histamine on isolated guinea pig small intestine); parameters: species or system Guinea pigs
T2 construct: Segments measuring 5-6 cm were drawn form the end portion of the small intestine; from tissue; host or cells: guinea pig terminal small intestine (ileum)
T2 sequence (P31389 whole entry): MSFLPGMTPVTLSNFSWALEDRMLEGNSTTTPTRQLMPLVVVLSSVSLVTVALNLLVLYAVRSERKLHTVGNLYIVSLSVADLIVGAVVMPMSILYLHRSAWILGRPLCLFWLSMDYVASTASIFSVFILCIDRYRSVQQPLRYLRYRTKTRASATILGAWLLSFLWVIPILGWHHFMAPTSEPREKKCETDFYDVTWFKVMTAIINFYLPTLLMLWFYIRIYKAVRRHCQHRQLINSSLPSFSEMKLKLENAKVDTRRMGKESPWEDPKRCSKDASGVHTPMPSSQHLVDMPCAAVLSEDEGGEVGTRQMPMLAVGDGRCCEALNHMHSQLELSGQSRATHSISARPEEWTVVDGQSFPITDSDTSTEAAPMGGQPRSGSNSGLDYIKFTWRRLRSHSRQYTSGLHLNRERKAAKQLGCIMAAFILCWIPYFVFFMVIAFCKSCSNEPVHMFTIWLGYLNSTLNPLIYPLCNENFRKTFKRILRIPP

Ca^++ receptors = assay: displacement of 3H-nitrendipine from Ca++ receptors, rat brain membranes; type: binding; settings: 3H-nitrendipine 1nM
guinea pig back = assay: local anaesthetic activity in the test of the guinea pig back in vivo (intracutaneous infiltration); settings: for ED50 (C.L. 95%), 5 min. / ED50 (C.L. 95%), 15 min. / ED50 (C.L. 95%), 30 min.: guinea pig back, cutaneous anaesthesia, 0.25 ml; for ED50 (C.L. 95%), 5 min.: 5 min. after administration; for ED50 (C.L. 95%), 15 min.: 15 min. after administration; for ED50 (C.L. 95%), 30 min.: 30 min. after administration
Experimental: (b) Evaluation of the local anaesthetic activity in the test of the guinea pig back in vivo in comparison with lidocaine.
The local anaesthetic activity was evaluated by the method of intracutaneous infiltration in the guinea pig back as described by Bulbring E. and Wajda I. [(J. Pharmacol. Exp. Ther. 85, 78, (1945)].
Female guinea pigs weighin 400-500 g were treated intracutaneously in 4 points of their back.
At 5 minutes intervals, it was determined the reactivity of the animal to pain in each area by considering the number of responses to 6 pain stimulations.
Compounds of formula I, compound R and lidocaine, dissolved at different concentration in physiological solution adjusting the pH at 7 by addition of NaHCO3 were injected under the skin at the constant volume of 0.25 ml.
The distribution of the treatments in the 4 areas of the back was carried out according to the scheme of the Latin square. Experiments were carried out in blind.
As an example, the ED50 values for compound No. 8, compound R and lidocaine determined at 5, 15 and 30 minutes after the administration are reported in table 4.

5-HT2 receptors = 5-HT2 receptors (Rattus norvegicus, UniProt P14842); assay: affinity for 5-HT2 receptors (3H-spiroperidol binding), rat cortex membranes; settings: rat frontal cortex membranes
Chain of 5-HT2 receptors (P14842 whole entry): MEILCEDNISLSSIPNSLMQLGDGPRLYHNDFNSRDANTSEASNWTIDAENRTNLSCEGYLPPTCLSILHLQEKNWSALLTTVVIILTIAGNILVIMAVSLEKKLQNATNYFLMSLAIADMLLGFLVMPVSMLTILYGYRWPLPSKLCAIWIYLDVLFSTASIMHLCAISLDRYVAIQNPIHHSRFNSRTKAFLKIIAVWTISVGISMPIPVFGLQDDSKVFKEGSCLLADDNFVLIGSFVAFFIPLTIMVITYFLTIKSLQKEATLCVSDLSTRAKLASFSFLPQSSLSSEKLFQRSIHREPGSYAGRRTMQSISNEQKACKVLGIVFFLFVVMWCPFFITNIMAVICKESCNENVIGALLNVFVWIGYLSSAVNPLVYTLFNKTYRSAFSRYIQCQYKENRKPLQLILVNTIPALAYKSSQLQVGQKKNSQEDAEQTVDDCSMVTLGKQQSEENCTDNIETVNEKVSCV

rat sciatic nerve = assay: local anaesthetic activity on sciatic nerve preparation in vitro; settings: for IC50: read-out: ED50 (C.L. 95%)
5-HT3 receptors [4] = biological target: T3, 5-HT3 receptors (Oryctolagus cuniculus, UniProt A0A5F9C9J3); assay: anti-5-HT3 activity in vitro on the isolated vagus nerve of rabbit
T3 construct: from tissue; host or cells: isolated rabbit vagus nerve
T3 sequence (A0A5F9C9J3 1-494): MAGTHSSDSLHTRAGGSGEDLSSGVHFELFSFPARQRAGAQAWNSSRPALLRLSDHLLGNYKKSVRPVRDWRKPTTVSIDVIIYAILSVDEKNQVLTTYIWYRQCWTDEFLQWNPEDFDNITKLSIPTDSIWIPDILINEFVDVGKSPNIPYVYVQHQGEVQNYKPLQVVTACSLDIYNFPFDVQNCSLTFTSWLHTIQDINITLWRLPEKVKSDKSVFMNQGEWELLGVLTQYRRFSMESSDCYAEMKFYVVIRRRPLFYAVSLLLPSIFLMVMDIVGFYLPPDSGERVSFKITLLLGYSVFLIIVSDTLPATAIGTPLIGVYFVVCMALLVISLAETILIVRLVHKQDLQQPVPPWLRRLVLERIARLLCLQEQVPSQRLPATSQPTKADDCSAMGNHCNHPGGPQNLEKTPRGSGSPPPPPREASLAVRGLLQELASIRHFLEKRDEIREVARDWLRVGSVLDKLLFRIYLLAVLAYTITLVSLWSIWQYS
Experimental: (b) Evaluation of the anti-5-HT3 activity in vitro on the vagus nerve of rabbit. Male albino New Zeland rabbits weighing about 3 kg were sacrified by an air injection in the edge auriculaers vein. The two vagus nerves, drawn as soon as possible, were placed in a bath of Locke solution having the following composition: 154 mM NaCl; 5.5 mM KCl; 2.2 mM CaCl2; 5 mM glucose; 8 mM TRIS, the pH being adjusted at 7.6 by addition of HCl. Nerves were stripped of their epineurium and transferred into a device described by Kosterlitz H. W. et al., [J. Physiol., 183, IP-3P, (1966)] consisting of four compartments separated by means of 3 elastic membranes having a little hole through which the nerve passes. The glucose concentration perfusing a portion of the nerve was 315 mM. The overmaximal electric stimulation by a single shock at 10 seconds intervals elicited a potential visualized on a storage oscilloscope. In the potential the complexes due to the excitation of fibers A, B and C were distinguished. A serotonin solution applied to the nerve causes the dose-dependent fall of the potential for fibers C only. The non variation of the A-B complex when applying serotonin and the test compounds of formula I indicates on one hand the specific action of the substances for receptors relating to fibers C only (5-HT3 receptors) and on the other hand the absence of local-anaesthetic activity. Tests were performed at room temperature (24°-25° C.). The optimum maximum reduction of the potential of fibers C by serotonin resulted to be 44%. This reduction was adopted as maximum effect (100%). For each nerve a dose-response curve was constructed with cumulative doses of serotonin. After having washed serotonin and recovered the initial potential, the nerve was balanced with a fixed concentration of the compound of formula I for 60 minutes and successively the dose-response curve to serotonin was repeated, the compound of formula I being always present in the same concentration. After having applied a serotonin concentration sufficient to produce the highest effect, the preparation was washed and thereafter it was balanced again for 60 minutes with a solution of the same compound of formula I having a higher concentration. The procedure was then repeated. For each dose of the compound of formula I the test was repeated more than 5 times. The negative […] logarithm of the molar concentration of the compound of formula I which gives a 50% reduction of the effect of the agonist substance (pA2) was calculated. In table 7, the pA2 values of some compounds of formula I are reported.

[5] = tested on: norepinephrine induced arrythmias in rat; assay: inhibition of norepinephrine induced arrythmias in rat; type: in vivo; settings: for ED50: Rattus norvegicus, 50% reduction of arrythmia duration
Experimental: Male rats, weighing 300-400 g, narcotized with urethan (1.5 g/kg, i.p.) were used; one little probe was implanted into the jugular vein and another into the femoral vein for administering norepinephrine and the test substance respectively. The EGC was recorded in II derivation and from it the instantaneous heart rate was derived. Furthermore, the EGC wave was monitored on oscilloscope and made audible by mean of a loudspeaker. Norepinephrine (75 μg/kg/min. for 15 seconds, 7-8 μg/animal) was administered by means of a Braun perfusion apparatus. The dose of administered norepinephrine was established in preliminary tests so as to cause an arrythmia of a duration equal to or higher than 10 seconds. The arising time of the heart arrythmia starting from the beginning of the norepinephrine perfusion and the duration of the arrythmic phase were recorded. Tests of arrythmia duration for each animal were performed; thereafter the compounds of formula I and the compound R were administered intravenously or per os 2 minutes or 1 hour respectively before a fourth norepinephrine infusion. The activity of test compounds was evaluated as increasing percentage in the time of the arising of arrythmia as well as of the inhibition (duration of the arrythmic phase). For each dose at least 5 tests were performed. In table 9 we report as an example the ED50 values defined as 50% reduction of the duration of arrythmias after the administration of both compound No. 8 and compound R either intravenously (i.v.) or per os (p.o.).

[6] = tested on: reperfusion induced arrythmias in rat; assay: inhibition of reperfusion induced arrythmias in rat; type: in vivo; settings: for % VF / % dead: 10 treated rats; for incidence dead / incidence VF: number of 10 treated rats
5-HT3 receptors [7] = biological target: T4, 5-HT3 receptors (Rattus norvegicus, UniProt P35563); assay: anti-5-HT3 activity in vivo, inhibition of the Bezold-Jarisch effect; settings: intravenous, read-out: ED50 to the antagonism of the heart rate fall (Bezold-Jarisch effect)
T4 construct: Male albino rats weighing 300-400 g anaesthetized with urethan; from tissue; host or cells: whole anaesthetized rat (endogenous receptor on cardiac vagal afferents)
T4 sequence (P35563 24-483): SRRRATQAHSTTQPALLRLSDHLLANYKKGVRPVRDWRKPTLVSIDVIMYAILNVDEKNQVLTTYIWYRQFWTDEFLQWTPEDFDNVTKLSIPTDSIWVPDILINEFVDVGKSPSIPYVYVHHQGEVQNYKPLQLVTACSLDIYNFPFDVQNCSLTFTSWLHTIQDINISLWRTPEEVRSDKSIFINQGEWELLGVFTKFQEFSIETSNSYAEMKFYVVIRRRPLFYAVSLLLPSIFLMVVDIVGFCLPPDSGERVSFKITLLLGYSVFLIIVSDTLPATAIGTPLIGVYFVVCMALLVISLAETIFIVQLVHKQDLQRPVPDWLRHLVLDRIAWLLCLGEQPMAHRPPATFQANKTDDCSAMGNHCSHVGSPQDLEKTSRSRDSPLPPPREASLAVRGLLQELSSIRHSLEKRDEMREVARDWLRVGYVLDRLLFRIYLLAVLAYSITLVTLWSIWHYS
Text: (a) Evaluation of the anti-5-HT3 activity in vivo by the method of the inhibition of the Bezold-Jarisch effect. The followed method was described by Fozard J. R. et al. [Nature, 316, 126-131, (1985)]. Male albino rats weighing 300-400 g anaesthetized with urethan (1.25-1.5 g/kg i.p.) were used. A tracheal cannula to allow respiration, one little catheter implanted into the jugular vein for administering serotonin and another into the right femoral vein for the intravenous administration of the compounds of formula I and of compound R were used. The bolus injection into the jugular vein of a serotonin solution caused an abrupt reduction of the heart rate quantified as 100% of the effect. The evaluation of the anti-5-HT3 activity was performed by calculating ED50 values (μg/kg) to the antagonism of the heart rate fall.

[8] = iv, 2 min, i.v., 2 minutes before norepinephrine, read-out: ED50 i.v.
[9] = po, 1 hour before norepinephrine, read-out: ED50 p.o.
[10] = 3 mg/kg per os, *** significance < 0.001

Compound	Affinity (IC50) to 5-HT1 receptors (5-HT1 receptors)	Kb [1]	Displacement activity at benzodiazepine receptors [2]	Displacement activity at receptors of Ca++ (Ca^++ receptors)	ED50 (C.L. 95%), 5 min. (guinea pig back)	ED50 (C.L. 95%), 15 min. (guinea pig back)	ED50 (C.L. 95%), 30 min. (guinea pig back)	ED50 [5, 8]	ED50 [5, 9]	% VF ([6]; 3 mg/kg per os)	% dead ([6]; 3 mg/kg per os)	incidence dead ([6]; 3 mg/kg per os)	incidence VF [6, 10]	further results
Cc1cc(C(=O)O[C@H]2C[C@H]3CC[C@@H](C2)N3C)no1 [Compound 8, 5-methylisoxazole-3-carboxylic acid 3-(endo-8-methyl-8-azabicyclo[3,2,1]octyl) ester hydrochloride]	inactive	6.31 µM	inactive	inactive	28.4 (25.5-31.8) mM	32.8 (30.5-35.2) mM	41.2 (38.8-43.7) mM	0.125 mg/kg	0.35 mg/kg	0%	0%	0	0	Kb ([3]; vs histamine, guinea pig small intestine, 37° C., test compounds 10^-5 M, read-out: Antihistaminic activity (pA2) (converted)): 6.31 µM; local anaesthetic activity, guinea pig back (in words) (guinea pig back; guinea pig, in vivo): undoubtedly less active as local anaesthetic than compound R and lidocaine; Affinity (IC50) to 5-HT2 receptors (5-HT2 receptors; 3H-spiroperidol […]): inactive; IC50 (rat sciatic nerve; rat, sciatic nerve, 8 min): > 15000 µM; Kb (5-HT3 receptors [4]): 0.000631 µM; activity in norepinephrine-induced arrythmia (in words) ([5]; intravenously or per os): much more active than the compound R; % VF ([6]; 1 mg/kg per os): 20%; % dead ([6]; 1 mg/kg per os): 10%; incidence dead ([6]; 1 mg/kg per os): 1; incidence VF ([6]; 1 mg/kg per os, ** significance < 0.02): 2; antiarrythmic activity, reperfusion induced arrythmias (in words) ([6]; per os): active in the test of reperfusion-induced arrythmias
CN1[C@@H]2CC[C@H]1C[C@@H](OC(=O)c1c[nH]c3ccccc13)C2 [R, 3-endo-tropanyl indol-3-yl carboxylate, reference compound]	inactive	15.8 µM	1,000	inactive	2.5 (2.1-2.9) mM	3.3 (3.0-3.7) mM	5.7 (5.2-6.2) mM	0.65 mg/kg	4 mg/kg	70%	30%	3	7	anticholinergic activity (in words) [1]: practically free of anticholinergic and antihistaminic activity; Kb [3]: 3.16 µM; antihistaminic activity (in words) [3]: practically free of anticholinergic and antihistaminic activity; IC50 (5-HT2 receptors; 3H-spiroperidol 0.25 nM): 25 µM; local anaesthetic activity (in words) (rat sciatic nerve): good activity; also recorded: comparable with that of lidocaine; IC50 (rat sciatic nerve; rat sciatic nerve in vitro, 8 minutes contact): 1300 µM; ED50 (5-HT3 receptors [7]): 0.006 mg/kg
